Test results from patent US20100298285A1, “Biclycloheteroaryl Compounds as P2x7 Modulators and Uses Thereof” (priority 2006, published 2010).

Tested on: IL-1β release, THP-1 cells
Test: IL-1β release assay in differentiated THP-1 cells stimulated with BzATP (Example 9)
Type: cell-based
Conditions: Homo sapiens; for inhibition at 0.3 µM: 0.3 μM compound ("+" symbols), differentiated THP-1 cells, 250 uM BzATP, read-out: IL-1β% Inhib. @ 0.3 or 0.1 μM
Procedure: THP-1 cells (ATCC Cat # 285-IF-100) are plated in 96 well plates at a concentration of 200,000 cells per well and allowed to differentiate in RPMI-1640 media (ATCC Cat # 30-2001) containing 10% FBS, 100 IU/mL penicillin, 100 ug/mL streptomycin, 100 ng/mL LPS and 100 ng/mL IFN-γ for 16 hours. Following differentiation, the cells are treated for an additional 2 hours in RPMI-1640 media containing 100 IU/mL penicillin, 100 ug/mL streptomycin and fresh LPS at 100 ng/mL. The cells are then pretreated for 30 minutes with the compound of interest at the appropriate concentration in RPMI media containing 100 IU/mL penicillin, 100 ug/mL streptomycin. Following the pretreatment 2′,3′-O-(4-benzoylbenzoyl)-adenosine 5′-triphosphate (Sigma Aldrich Cat # B6396) is added to a final concentration of 250 uM and the cells are incubated for an additional 45 minutes. 30 uL of cell supernatant is then collected and IL-1β levels determined via ELISA (R&D systems Cat. # HSLB50) according to manufacturer's recommendations using the Tecan Safire plate reader. Background adjusted IL-1β levels of drug treated and non-treated cells are used to calculate the percent inhibition.
The following compounds have been or can be prepared according to the synthetic methods described above. For the purpose of Table 1 below, activity of each compound, which can be determined using the IL-1β assay method described in Example 9, is expressed as follows: […]
The compounds set forth in Table 1 were tested for activity in a cellular model as described herein. Specifically, cells were pretreated with differing amounts of the compound under test and released IL-1β determined as in Example 9, above. Measurements were made and IC50 values, presented in Table 2, below, were determined by fitting the data to a four parameter logistic equation using GraphPad Prism software (GraphPad Software, Inc). The equation may be expressed by the following formula:
Y=Bottom+(Top−Bottom)/(1+10̂((Log EC50−X)*HillSlope))
Where X is the logarithm of concentration, Y is the response and Y starts at Bottom and goes to Top with a sigmoid shape.

Row | SMILES | inhibition at 0.3 µM [%] | IC50 (THP-1 cells, BzATP 250 uM, four parameter logistic fit) [nM]
1 | CC(C)C(=O)N1CCc2c(ccc(Cl)c2NC(=O)Cc2ccc(C(F)(F)F)c(F)c2)C1 [Compound 3088] | 0 to 25 | 
2 | O=C(Cc1ccc(C(F)(F)F)c(F)c1)Nc1c(Cl)ccc2c1CCN(C(=O)CCc1ccccc1)C2 [Compound 3089] | 0 to 25 | 
3 | COc1cccc(C(=O)N2CCc3c(ccc(Cl)c3NC(=O)Cc3ccc(C(F)(F)F)c(F)c3)C2)c1 [Compound 3090] | 0 to 25 | 
4 | O=C(Cc1ccc(C(F)(F)F)c(F)c1)Nc1c(Cl)ccc2c1CCN(C(=O)c1ccc(F)cc1)C2 [Compound 3091] | 0 to 25 | 
5 | CC(C)(C)C(=O)N1CCc2c(ccc(Cl)c2NC(=O)Cc2ccc(C(F)(F)F)c(F)c2)C1 [Compound 3092] | ≥ 76 | 
6 | O=C(Cc1ccc(C(F)(F)F)c(F)c1)Nc1c(Cl)ccc2c1CCN(C(=O)c1cccc(Cl)c1)C2 [Compound 3093] | 0 to 25 | 
7 | CN(C)c1ccc(C(=O)N2CCc3c(ccc(Cl)c3NC(=O)Cc3ccc(C(F)(F)F)c(F)c3)C2)cc1 [Compound 3096] | 26 to 50 | 
8 | O=C(Cc1ccc(C(F)(F)F)c(F)c1)Nc1c(Cl)ccc2c1CCN(C(=O)COCc1ccccc1)C2 [Compound 3097] | 0 to 25 | 
9 | N#Cc1ccc(C(=O)N2CCc3c(ccc(Cl)c3NC(=O)Cc3ccc(C(F)(F)F)c(F)c3)C2)cc1 [Compound 3098] | 0 to 25 | 
10 | O=C(Cc1ccc(C(F)(F)F)c(F)c1)Nc1c(Cl)ccc2c1CCN(C(=O)C1CC1c1ccccc1)C2 (stereo not shown) [Compound 3099] | 0 to 25 | 
11 | O=C(Cc1ccc(C(F)(F)F)c(F)c1)Nc1c(Cl)ccc2c1CCN(C(=O)c1ccc(Cl)cc1Cl)C2 [Compound 3100] | 0 to 25 | 
12 | O=C(Cc1ccc(C(F)(F)F)c(F)c1)Nc1c(Cl)ccc2c1CCN(C(=O)C1CCC1)C2 [Compound 3101] | 0 to 25 | 
13 | O=C(Cc1ccc(C(F)(F)F)c(F)c1)Nc1c(Cl)ccc2c1CCN(C(=O)C1CC1)C2 [Compound 3102] | 0 to 25 | 
14 | O=C(Cc1ccc(C(F)(F)F)c(F)c1)Nc1c(Cl)ccc2c1CCN(C(=O)CC1CCCC1)C2 [Compound 3103] | 51 to 75 | 172
15 | O=C(Cc1ccc(C(F)(F)F)c(F)c1)Nc1c(Cl)ccc2c1CCN(C(=O)COc1ccc(Cl)cc1)C2 [Compound 3104] | 0 to 25 | 
16 | O=C(Cc1ccc(C(F)(F)F)c(F)c1)Nc1c(Cl)ccc2c1CCN(C(=O)Cc1ccc(Cl)cc1)C2 [Compound 3105] | 26 to 50 | 
17 | O=C(Cc1ccc(C(F)(F)F)c(F)c1)Nc1c(Cl)ccc2c1CCN(C(=O)c1ccccc1C(F)(F)F)C2 [Compound 3106] | 26 to 50 | 
18 | Cc1ccc(F)c(C(=O)N2CCc3c(ccc(Cl)c3NC(=O)Cc3ccc(C(F)(F)F)c(F)c3)C2)c1Cl [Compound 3107] | 0 to 25 | 
19 | Cc1nn(-c2ccccc2)nc1C(=O)N1CCc2c(ccc(Cl)c2NC(=O)Cc2ccc(C(F)(F)F)c(F)c2)C1 [Compound 3108] | 0 to 25 | 

Row | SMILES | inhibition at 0.3 µM [%] | IC50 (THP-1 cells, BzATP 250 uM, four parameter logistic fit) [nM]
20 | O=C(Cc1ccc(C(F)(F)F)c(F)c1)Nc1c(Cl)ccc2c1CCN(C(=O)C1COc3ccccc3O1)C2 (stereo not shown) [Compound 3110] | 0 to 25 | 
21 | Cc1ccccc1C(=O)N1CCc2c(ccc(Cl)c2NC(=O)Cc2ccc(C(F)(F)F)c(F)c2)C1 [Compound 3112] | 0 to 25 | 
22 | O=C(Cc1ccc(C(F)(F)F)c(F)c1)Nc1c(Cl)ccc2c1CCN(C(=O)c1cc(F)ccc1F)C2 [Compound 3113] | 0 to 25 | 
23 | O=C(Cc1ccc(C(F)(F)F)c(F)c1)Nc1c(Cl)ccc2c1CCN(C(=O)c1ccccc1F)C2 [Compound 3114] | 0 to 25 | 
24 | O=C(Cc1ccc(C(F)(F)F)c(F)c1)Nc1c(Cl)ccc2c1CCN(C(=O)c1cccc(Cl)c1Cl)C2 [Compound 3115] | 0 to 25 | 
25 | Cc1cc(C(=O)N2CCc3c(ccc(Cl)c3NC(=O)Cc3ccc(C(F)(F)F)c(F)c3)C2)no1 [Compound 3116] | 0 to 25 | 
26 | O=C(Cc1ccc(C(F)(F)F)c(F)c1)Nc1c(Cl)ccc2c1CCN(C(=O)/C=C/c1ccccc1)C2 [Compound 3118] | 26 to 50 | 
27 | Cc1ccc(C(=O)N2CCc3c(ccc(Cl)c3NC(=O)Cc3ccc(C(F)(F)F)c(F)c3)C2)cc1 [Compound 3119] | 26 to 50 | 
28 | COc1ccccc1C(=O)N1CCc2c(ccc(Cl)c2NC(=O)Cc2ccc(C(F)(F)F)c(F)c2)C1 [Compound 3120] | 0 to 25 | 
29 | O=C(Cc1ccc(C(F)(F)F)c(F)c1)Nc1c(Cl)ccc2c1CCN(C(=O)c1cccc3ccccc13)C2 [Compound 3121] | 0 to 25 | 
30 | CC(=O)N1CCC(C(=O)N2CCc3c(ccc(Cl)c3NC(=O)Cc3ccc(C(F)(F)F)c(F)c3)C2)CC1 [Compound 3122] | 0 to 25 | 
31 | CCCC(=O)N1CCc2c(ccc(Cl)c2NC(=O)Cc2ccc(C(F)(F)F)c(F)c2)C1 [Compound 3123] | 0 to 25 | 
32 | CC(C)(C)c1ccc(C(=O)N2CCc3c(ccc(Cl)c3NC(=O)Cc3ccc(C(F)(F)F)c(F)c3)C2)cc1 [Compound 3124] | 0 to 25 | 
33 | O=C(Cc1ccc(C(F)(F)F)c(F)c1)Nc1c(Cl)ccc2c1CCN(C(=O)c1ccc3ccccc3n1)C2 [Compound 3125] | 26 to 50 | 
34 | O=C(Cc1ccc(C(F)(F)F)c(F)c1)Nc1c(Cl)ccc2c1CCN(C(=O)c1ccncc1)C2 [Compound 3126] | 0 to 25 | 
35 | CC(=O)Nc1ccc(C(=O)N2CCc3c(ccc(Cl)c3NC(=O)Cc3ccc(C(F)(F)F)c(F)c3)C2)cc1 [Compound 3128] | 0 to 25 | 
36 | COc1ccc(C(=O)N2CCc3c(ccc(Cl)c3NC(=O)Cc3ccc(C(F)(F)F)c(F)c3)C2)cc1OC [Compound 3129] | 0 to 25 | 
37 | O=C(Cc1ccc(C(F)(F)F)c(F)c1)Nc1c(Cl)ccc2c1CCN(C(=O)CCC1CCCCC1)C2 [Compound 3130] | 51 to 75 | 
38 | O=C(Cc1ccc(C(F)(F)F)c(F)c1)Nc1c(Cl)ccc2c1CCN(C(=O)c1cc(Cl)cc(Cl)c1)C2 [Compound 3131] | 0 to 25 | 

Row | SMILES | inhibition at 0.3 µM [%] | IC50 (THP-1 cells, BzATP 250 uM, four parameter logistic fit) [nM]
39 | O=C(Cc1ccc(C(F)(F)F)c(F)c1)Nc1c(Cl)ccc2c1CCN(C(=O)c1ccc(C(F)(F)F)nc1)C2 [Compound 3132] | 0 to 25 | 
40 | O=C(Cc1ccc(C(F)(F)F)c(F)c1)Nc1c(Cl)ccc2c1CCN(C(=O)c1ccc(Oc3ccccc3)nc1)C2 [Compound 3133] | 0 to 25 | 
41 | O=C(Cc1ccc(C(F)(F)F)c(F)c1)Nc1c(Cl)ccc2c1CCN(C(=O)c1nccs1)C2 [Compound 3134] | 26 to 50 | 
42 | CC(Oc1ccccc1)C(=O)N1CCc2c(ccc(Cl)c2NC(=O)Cc2ccc(C(F)(F)F)c(F)c2)C1 (stereo not shown) [Compound 3135] | 26 to 50 | 
43 | CC(=O)N1CCc2c(ccc(Cl)c2NC(=O)Cc2cccc(C(F)(F)F)c2F)C1 [Compound 3136] | 0 to 25 | 
44 | O=C(Cc1cccc(C(F)(F)F)c1F)Nc1c(Cl)ccc2c1CCN(C(=O)c1ccccc1)C2 [Compound 3137] | 0 to 25 | 
45 | CCC(=O)N1CCc2c(ccc(Cl)c2NC(=O)Cc2cccc(C(F)(F)F)c2F)C1 [Compound 3138] | 0 to 25 | 
46 | O=C(Cc1cccc(C(F)(F)F)c1F)Nc1c(Cl)ccc2c1CCN(C(=O)c1ccc(Cl)cc1)C2 [Compound 3139] | 0 to 25 | 
47 | Cc1cccc(C(=O)N2CCc3c(ccc(Cl)c3NC(=O)Cc3cccc(C(F)(F)F)c3F)C2)c1 [Compound 3140] | 0 to 25 | 
48 | COc1ccc(C(=O)N2CCc3c(ccc(Cl)c3NC(=O)Cc3cccc(C(F)(F)F)c3F)C2)cc1 [Compound 3141] | 0 to 25 | 
49 | O=C(Cc1cccc(C(F)(F)F)c1F)Nc1c(Cl)ccc2c1CCN(C(=O)c1ccc(-c3ccccc3)cc1)C2 [Compound 3142] | 0 to 25 | 
50 | O=C(Cc1cccc(C(F)(F)F)c1F)Nc1c(Cl)ccc2c1CCN(C(=O)c1cc(F)c(F)cc1F)C2 [Compound 3143] | 0 to 25 | 
51 | O=C(Cc1cccc(C(F)(F)F)c1F)Nc1c(Cl)ccc2c1CCN(C(=O)C1CCCC1)C2 [Compound 3144] | 0 to 25 | 
52 | COCC(=O)N1CCc2c(ccc(Cl)c2NC(=O)Cc2cccc(C(F)(F)F)c2F)C1 [Compound 3145] | 51 to 75 | 
53 | CCCc1ccc(C(=O)N2CCc3c(ccc(Cl)c3NC(=O)Cc3cccc(C(F)(F)F)c3F)C2)cc1 [Compound 3146] | 26 to 50 | 
54 | O=C(Cc1cccc(C(F)(F)F)c1F)Nc1c(Cl)ccc2c1CCN(C(=O)C1CCCCC1)C2 [Compound 3147] | 0 to 25 | 
55 | O=C(Cc1cccc(C(F)(F)F)c1F)Nc1c(Cl)ccc2c1CCN(C(=O)c1ccc(Cl)c(Cl)c1)C2 [Compound 3148] | 0 to 25 | 
56 | COc1cc(OC)cc(C(=O)N2CCc3c(ccc(Cl)c3NC(=O)Cc3cccc(C(F)(F)F)c3F)C2)c1 [Compound 3149] | 26 to 50 | 
57 | CC(C)C(=O)N1CCc2c(ccc(Cl)c2NC(=O)Cc2cccc(C(F)(F)F)c2F)C1 [Compound 3150] | 0 to 25 | 
